ChEMBL document CHEMBL5212743, “Selectivity Literature for EUbOPEN Chemogenomics Library wave 3” (2023)

What was measured:
[1] = target: Protein arginine N-methyltransferase 5 (Homo sapiens, UniProt O14744); test: Selectivity interaction (Protein methyltransferase panel (activity assay)) EUB0000211b PRMT5
[2] = target: Histone-lysine N-methyltransferase SETD7 (Homo sapiens) (UniProt Q8WTS6); test: Selectivity interaction (Protein methyltransferase panel (activity assay)) EUB0000211b SETD7
[3] = target: DNA (cytosine-5)-methyltransferase 1 (Homo sapiens, UniProt P26358); test: Selectivity interaction (Protein methyltransferase panel (activity assay)) EUB0000211b DNMT1
[4] = target: Protein arginine N-methyltransferase 9 (Homo sapiens) (UniProt Q6P2P2); test: Selectivity interaction (Protein methyltransferase panel (activity assay)) EUB0000211b PRMT9
[5] = target: N-lysine methyltransferase SMYD2 (Homo sapiens, UniProt Q9NRG4); test: Selectivity interaction (Protein methyltransferase panel (activity assay)) EUB0000211b SMYD2
[6] = target: Histone-lysine N-methyltransferase, H3 lysine-79 specific (Homo sapiens, UniProt Q8TEK3); test: Selectivity interaction (Protein methyltransferase panel (activity assay)) EUB0000211b DOT1L
[7] = target: Histone-lysine N-methyltransferase EHMT1 (Homo sapiens) (UniProt Q9H9B1); test: Selectivity interaction (Protein methyltransferase panel (activity assay)) EUB0000211b EHMT1
[8] = target: Histone-lysine N-methyltransferase EHMT2 (Homo sapiens) (UniProt Q96KQ7); test: Selectivity interaction (Protein methyltransferase panel (activity assay)) EUB0000211b EHMT2
[9] = target: Histone-lysine N-methyltransferase EZH1 (Homo sapiens) (UniProt Q92800); test: Selectivity interaction (Protein methyltransferase panel (activity assay)) EUB0000211b EZH1
[10] = target: Histone-lysine N-methyltransferase EZH2 (Homo sapiens, UniProt Q15910); test: Selectivity interaction (Protein methyltransferase panel (activity assay)) EUB0000211b EZH2
[11] = target: Histone-lysine N-methyltransferase, H3 lysine-36 specific (Homo sapiens) (UniProt Q96L73); test: Selectivity interaction (Protein methyltransferase panel (activity assay)) EUB0000211b NSD1
[12] = target: Histone-lysine N-methyltransferase NSD2 (Homo sapiens) (UniProt O96028); test: Selectivity interaction (Protein methyltransferase panel (activity assay)) EUB0000211b NSD2
[13] = target: Histone-lysine N-methyltransferase NSD3 (Homo sapiens) (UniProt Q9BZ95); test: Selectivity interaction (Protein methyltransferase panel (activity assay)) EUB0000211b NSD3
[14] = target: Protein arginine N-methyltransferase 1 (Homo sapiens, UniProt Q99873); test: Selectivity interaction (Protein methyltransferase panel (activity assay)) EUB0000211b PRMT1
[15] = target: Protein arginine N-methyltransferase 3 (Homo sapiens, UniProt O60678); test: Selectivity interaction (Protein methyltransferase panel (activity assay)) EUB0000211b PRMT3
[16] = target: Protein arginine N-methyltransferase 6 (Homo sapiens, UniProt Q96LA8); test: Selectivity interaction (Protein methyltransferase panel (activity assay)) EUB0000211b PRMT6
[17] = target: Protein arginine N-methyltransferase 8 (Homo sapiens, UniProt Q9NR22); test: Selectivity interaction (Protein methyltransferase panel (activity assay)) EUB0000211b PRMT8
[18] = target: N-lysine methyltransferase KMT5A (Homo sapiens) (UniProt Q9NQR1); test: Selectivity interaction (Protein methyltransferase panel (activity assay)) EUB0000211b SETD8
[19] = target: Histone-lysine N-methyltransferase SETDB1 (Homo sapiens, UniProt Q15047); test: Selectivity interaction (Protein methyltransferase panel (activity assay)) EUB0000211b SETDB1
[20] = target: Histone-lysine N-methyltransferase SUV39H2 (Homo sapiens, UniProt Q9H5I1); test: Selectivity interaction (Protein methyltransferase panel (activity assay)) EUB0000211b SUV39H2
[21] = target: Histone-lysine N-methyltransferase KMT5B (Homo sapiens, UniProt Q4FZB7); test: Selectivity interaction (Protein methyltransferase panel (activity assay)) EUB0000211b SUV420H1
[22] = target: Histone-lysine N-methyltransferase KMT5C (Homo sapiens, UniProt Q86Y97); test: Selectivity interaction (Protein methyltransferase panel (activity assay)) EUB0000211b SUV420H2
[23] = target: Tudor domain-containing protein 3 (Homo sapiens) (UniProt Q9H7E2); test: Selectivity interaction (Methyl-Lysine/Arginine panel (DSF assay)) EUB0000211b TDRD3; settings: OICR-# does not inhibit the C/EBPa p30-Wdr5 interaction (Western Blot), PMID: #;, Selectivity Remarks In vitro, Selectivity Source Knowledge https://www.thesgc.org/chemical-probes/OICR-9429, S
Activated CDC42 kinase 1 = Activated CDC42 kinase 1 (Homo sapiens, UniProt Q07912); test: Selectivity interaction (KinaseProfiler™ (Millipore)) EUB0000640a TNK2; settings: at 1 µM
[24] = target: Proto-oncogene tyrosine-protein kinase ROS (Homo sapiens) (UniProt P08922); test: Selectivity interaction (KinaseProfiler™ (Millipore)) EUB0000640a ROS1; settings: at 1 µM
[25] = target: Tyrosine-protein kinase TXK (Homo sapiens) (UniProt P42681); test: Selectivity interaction (KinaseProfiler™ (Millipore)) EUB0000640a TXK; settings: at 1 µM
[26] = target: T1, Cytoplasmic tyrosine-protein kinase BMX (Homo sapiens) (UniProt P51813); test: Selectivity interaction (KinaseProfiler™ (Millipore)) EUB0000640a BMX; settings: at 1 µM
T1 sequence (whole entry): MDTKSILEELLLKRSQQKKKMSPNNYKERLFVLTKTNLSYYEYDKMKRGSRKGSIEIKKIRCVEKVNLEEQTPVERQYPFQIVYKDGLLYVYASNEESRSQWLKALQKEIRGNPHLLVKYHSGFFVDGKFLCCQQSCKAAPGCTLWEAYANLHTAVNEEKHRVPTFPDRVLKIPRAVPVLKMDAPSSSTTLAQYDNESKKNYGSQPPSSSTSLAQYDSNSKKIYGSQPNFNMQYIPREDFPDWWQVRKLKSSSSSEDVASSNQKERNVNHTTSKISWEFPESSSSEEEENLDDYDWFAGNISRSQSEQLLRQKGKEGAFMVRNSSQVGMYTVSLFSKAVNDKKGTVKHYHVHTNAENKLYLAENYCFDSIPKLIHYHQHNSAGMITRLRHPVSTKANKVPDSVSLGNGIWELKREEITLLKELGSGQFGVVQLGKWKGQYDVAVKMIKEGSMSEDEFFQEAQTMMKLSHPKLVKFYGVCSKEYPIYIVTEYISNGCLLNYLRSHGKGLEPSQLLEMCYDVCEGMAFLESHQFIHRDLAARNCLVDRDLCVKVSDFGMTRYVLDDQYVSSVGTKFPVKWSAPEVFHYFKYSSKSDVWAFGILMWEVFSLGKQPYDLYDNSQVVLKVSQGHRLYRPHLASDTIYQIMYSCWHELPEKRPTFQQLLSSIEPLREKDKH

[27] = target: Tyrosine-protein kinase ABL2 (Homo sapiens) (UniProt P42684); test: Selectivity interaction (KinomeScan (DiscoverX)) EUB0000686a ABL2; settings: at 1 µM

Sequence of Histone-lysine N-methyltransferase KMT5C (Q86Y97 whole entry, looked up, the tested form may be a part): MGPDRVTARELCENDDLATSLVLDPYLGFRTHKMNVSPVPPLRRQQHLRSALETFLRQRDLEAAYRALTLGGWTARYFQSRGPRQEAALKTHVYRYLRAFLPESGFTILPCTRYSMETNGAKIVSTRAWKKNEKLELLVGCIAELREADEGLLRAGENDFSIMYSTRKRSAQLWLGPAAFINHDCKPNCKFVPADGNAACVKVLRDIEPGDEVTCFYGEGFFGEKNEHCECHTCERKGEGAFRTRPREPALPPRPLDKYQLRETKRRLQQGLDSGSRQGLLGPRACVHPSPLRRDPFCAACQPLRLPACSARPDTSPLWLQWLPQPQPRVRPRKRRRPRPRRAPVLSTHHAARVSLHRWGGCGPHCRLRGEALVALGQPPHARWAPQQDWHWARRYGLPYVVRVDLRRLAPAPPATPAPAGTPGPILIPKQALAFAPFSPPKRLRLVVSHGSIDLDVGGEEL
Sequence of Histone-lysine N-methyltransferase EZH2 (Q15910 whole entry, looked up): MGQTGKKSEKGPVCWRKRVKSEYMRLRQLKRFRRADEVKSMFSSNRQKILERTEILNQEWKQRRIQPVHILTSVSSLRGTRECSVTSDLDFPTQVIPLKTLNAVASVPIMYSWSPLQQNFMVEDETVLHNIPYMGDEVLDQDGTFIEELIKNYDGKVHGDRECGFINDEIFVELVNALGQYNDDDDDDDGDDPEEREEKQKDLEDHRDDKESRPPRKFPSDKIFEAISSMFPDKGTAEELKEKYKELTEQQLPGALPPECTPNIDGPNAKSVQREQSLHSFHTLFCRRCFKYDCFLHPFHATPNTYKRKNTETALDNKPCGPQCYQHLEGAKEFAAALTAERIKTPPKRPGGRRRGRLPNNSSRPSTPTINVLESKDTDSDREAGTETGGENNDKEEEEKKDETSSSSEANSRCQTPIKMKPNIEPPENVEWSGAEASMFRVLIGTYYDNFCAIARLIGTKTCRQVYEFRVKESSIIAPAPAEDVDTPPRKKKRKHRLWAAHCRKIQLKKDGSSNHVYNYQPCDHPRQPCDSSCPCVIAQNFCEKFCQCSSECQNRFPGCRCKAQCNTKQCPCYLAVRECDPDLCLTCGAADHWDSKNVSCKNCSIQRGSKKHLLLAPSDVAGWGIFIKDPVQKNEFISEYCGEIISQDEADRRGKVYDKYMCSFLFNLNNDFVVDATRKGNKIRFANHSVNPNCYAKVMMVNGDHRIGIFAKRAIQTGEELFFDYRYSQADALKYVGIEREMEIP
Sequence of Protein arginine N-methyltransferase 6 (Q96LA8 whole entry, looked up): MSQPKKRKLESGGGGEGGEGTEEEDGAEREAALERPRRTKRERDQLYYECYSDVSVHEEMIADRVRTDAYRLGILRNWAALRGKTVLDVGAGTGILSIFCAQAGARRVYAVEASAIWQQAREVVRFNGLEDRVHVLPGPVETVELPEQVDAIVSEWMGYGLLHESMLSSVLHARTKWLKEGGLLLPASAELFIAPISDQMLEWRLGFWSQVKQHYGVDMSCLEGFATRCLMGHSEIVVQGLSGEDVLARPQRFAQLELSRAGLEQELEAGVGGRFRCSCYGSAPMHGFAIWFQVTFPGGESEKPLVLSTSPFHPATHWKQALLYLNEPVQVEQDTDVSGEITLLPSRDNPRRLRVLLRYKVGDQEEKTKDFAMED
Sequence of Histone-lysine N-methyltransferase, H3 lysine-36 specific (Homo sapiens) (Q96L73 whole entry): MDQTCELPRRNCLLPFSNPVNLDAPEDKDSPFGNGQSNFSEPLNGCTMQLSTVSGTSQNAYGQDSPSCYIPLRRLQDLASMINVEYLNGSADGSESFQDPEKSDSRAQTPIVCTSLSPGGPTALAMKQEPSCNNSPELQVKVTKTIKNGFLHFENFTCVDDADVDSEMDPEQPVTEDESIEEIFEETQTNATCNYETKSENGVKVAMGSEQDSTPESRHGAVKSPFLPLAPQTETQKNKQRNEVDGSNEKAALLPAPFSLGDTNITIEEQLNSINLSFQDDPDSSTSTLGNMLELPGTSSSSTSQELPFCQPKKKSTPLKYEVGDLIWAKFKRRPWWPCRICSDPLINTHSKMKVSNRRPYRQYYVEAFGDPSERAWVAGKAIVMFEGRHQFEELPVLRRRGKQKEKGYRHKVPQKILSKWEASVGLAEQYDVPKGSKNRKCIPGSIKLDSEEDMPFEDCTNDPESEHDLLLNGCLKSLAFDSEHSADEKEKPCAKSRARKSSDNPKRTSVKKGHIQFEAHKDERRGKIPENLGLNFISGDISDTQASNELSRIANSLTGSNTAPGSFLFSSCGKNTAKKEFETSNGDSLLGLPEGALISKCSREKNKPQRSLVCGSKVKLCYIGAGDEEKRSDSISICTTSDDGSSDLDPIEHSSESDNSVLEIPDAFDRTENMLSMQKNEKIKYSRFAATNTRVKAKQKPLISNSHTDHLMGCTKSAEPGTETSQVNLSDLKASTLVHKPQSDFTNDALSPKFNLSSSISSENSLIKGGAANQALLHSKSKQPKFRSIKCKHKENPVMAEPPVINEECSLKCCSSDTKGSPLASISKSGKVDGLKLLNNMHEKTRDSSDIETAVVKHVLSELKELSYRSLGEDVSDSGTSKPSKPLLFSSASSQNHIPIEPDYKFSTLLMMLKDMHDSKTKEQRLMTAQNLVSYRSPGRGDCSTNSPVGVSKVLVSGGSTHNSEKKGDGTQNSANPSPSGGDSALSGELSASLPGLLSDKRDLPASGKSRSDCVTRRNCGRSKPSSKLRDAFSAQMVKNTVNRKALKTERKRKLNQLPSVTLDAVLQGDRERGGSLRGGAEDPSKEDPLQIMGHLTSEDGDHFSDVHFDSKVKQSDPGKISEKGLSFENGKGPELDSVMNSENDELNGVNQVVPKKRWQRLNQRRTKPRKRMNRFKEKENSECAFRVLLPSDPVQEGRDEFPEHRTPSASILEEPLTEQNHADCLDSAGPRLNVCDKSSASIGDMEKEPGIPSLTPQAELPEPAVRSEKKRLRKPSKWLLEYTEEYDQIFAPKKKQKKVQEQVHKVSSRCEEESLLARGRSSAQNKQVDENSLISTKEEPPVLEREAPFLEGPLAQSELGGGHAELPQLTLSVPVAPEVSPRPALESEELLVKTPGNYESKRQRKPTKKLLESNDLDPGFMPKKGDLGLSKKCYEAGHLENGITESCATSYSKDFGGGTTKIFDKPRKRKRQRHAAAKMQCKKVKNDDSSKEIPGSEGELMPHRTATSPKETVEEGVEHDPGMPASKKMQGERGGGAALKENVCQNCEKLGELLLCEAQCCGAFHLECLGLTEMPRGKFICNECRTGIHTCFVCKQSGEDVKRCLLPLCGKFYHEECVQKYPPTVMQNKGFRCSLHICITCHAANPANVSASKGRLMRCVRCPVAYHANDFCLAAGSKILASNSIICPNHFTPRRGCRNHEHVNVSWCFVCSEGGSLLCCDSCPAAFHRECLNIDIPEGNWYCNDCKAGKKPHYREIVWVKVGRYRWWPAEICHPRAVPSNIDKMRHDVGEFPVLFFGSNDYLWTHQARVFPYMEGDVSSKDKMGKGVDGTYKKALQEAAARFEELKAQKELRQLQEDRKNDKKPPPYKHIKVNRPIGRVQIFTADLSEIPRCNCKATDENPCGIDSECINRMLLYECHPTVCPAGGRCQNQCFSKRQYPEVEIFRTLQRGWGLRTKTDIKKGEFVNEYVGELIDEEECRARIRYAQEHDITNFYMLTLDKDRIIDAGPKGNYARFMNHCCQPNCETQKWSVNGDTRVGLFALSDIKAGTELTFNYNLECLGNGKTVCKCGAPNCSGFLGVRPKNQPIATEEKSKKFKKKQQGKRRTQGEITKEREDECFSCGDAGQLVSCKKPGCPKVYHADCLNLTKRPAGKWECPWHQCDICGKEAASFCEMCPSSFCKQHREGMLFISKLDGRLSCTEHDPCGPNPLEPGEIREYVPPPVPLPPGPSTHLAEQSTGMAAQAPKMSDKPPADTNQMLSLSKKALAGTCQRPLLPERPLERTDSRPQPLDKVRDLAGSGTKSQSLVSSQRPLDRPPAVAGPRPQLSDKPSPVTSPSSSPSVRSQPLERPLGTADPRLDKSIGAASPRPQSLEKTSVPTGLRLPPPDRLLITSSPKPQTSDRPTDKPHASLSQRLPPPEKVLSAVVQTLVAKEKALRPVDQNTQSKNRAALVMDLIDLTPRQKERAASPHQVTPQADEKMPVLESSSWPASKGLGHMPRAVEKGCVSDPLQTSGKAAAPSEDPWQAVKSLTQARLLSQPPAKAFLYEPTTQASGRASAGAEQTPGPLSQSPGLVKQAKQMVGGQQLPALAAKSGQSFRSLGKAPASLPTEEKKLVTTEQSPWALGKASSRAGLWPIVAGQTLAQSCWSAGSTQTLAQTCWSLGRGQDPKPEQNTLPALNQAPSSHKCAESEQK
Sequence of Protein arginine N-methyltransferase 9 (Homo sapiens) (Q6P2P2 whole entry): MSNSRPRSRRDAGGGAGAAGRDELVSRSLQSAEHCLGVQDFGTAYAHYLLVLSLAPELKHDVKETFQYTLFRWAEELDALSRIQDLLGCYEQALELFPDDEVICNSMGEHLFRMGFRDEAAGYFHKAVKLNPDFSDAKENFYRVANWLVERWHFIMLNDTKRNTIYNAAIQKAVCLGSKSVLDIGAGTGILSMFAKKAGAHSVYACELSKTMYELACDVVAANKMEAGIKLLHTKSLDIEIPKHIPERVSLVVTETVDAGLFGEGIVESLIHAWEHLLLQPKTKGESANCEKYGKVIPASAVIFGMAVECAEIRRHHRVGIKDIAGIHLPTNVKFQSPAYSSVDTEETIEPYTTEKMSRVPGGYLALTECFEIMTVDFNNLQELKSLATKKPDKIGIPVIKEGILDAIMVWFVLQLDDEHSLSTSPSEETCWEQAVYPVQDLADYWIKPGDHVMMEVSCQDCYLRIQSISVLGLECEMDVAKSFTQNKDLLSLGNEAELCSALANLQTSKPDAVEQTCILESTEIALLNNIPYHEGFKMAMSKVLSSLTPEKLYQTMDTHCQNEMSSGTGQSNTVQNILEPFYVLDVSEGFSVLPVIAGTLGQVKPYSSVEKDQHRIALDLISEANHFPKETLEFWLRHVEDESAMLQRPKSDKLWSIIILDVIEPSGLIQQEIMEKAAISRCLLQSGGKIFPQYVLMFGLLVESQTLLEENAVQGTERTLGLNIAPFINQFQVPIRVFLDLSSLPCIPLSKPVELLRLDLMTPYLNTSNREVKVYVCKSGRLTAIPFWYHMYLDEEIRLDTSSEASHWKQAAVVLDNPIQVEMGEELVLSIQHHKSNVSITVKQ

**Q.** Which results are given for `CN1CCN(c2ccc(-c3cccc(CN4CCOCC4)c3)cc2NC(=O)c2c[nH]c(=O)cc2C(F)(F)F)CC1`?
**A.** % activity remaining [1]: > 90%; % activity remaining [2]: > 90%; % activity remaining [3]: > 90%; % activity remaining [4]: > 90%; % activity remaining [5]: > 90%; % activity remaining [6]: > 90%; % activity remaining [7]: > 90%; % activity remaining [8]: > 90%; % activity remaining [9]: > 90%; % activity remaining [10]: > 90%; % activity remaining [11]: > 90%; % activity remaining [12]: > 80%; % activity remaining [13]: > 90%; % activity remaining [14]: > 90%; % activity remaining [15]: > 90%; % activity remaining [16]: > 90%; % activity remaining [17]: > 90%; % activity remaining [18]: > 90%; % activity remaining [19]: > 90%; % activity remaining [20]: > 90%; % activity remaining [21]: > 90%; % activity remaining [22]: > 90%; dTm [23]: 1.8 K

**Q.** How did the % of control (Activated CDC42 kinase 1) turn out when `C[C@@H]1CCc2ncc(F)cc2[C@H]2CCCN2c2ccn3ncc(c3n2)C(=O)N1` was run?
**A.** 10%

**Q.** What about the % of control [24] of the same compound?
**A.** 12%

**Q.** What about the % of control [25] of the same compound?
**A.** 14%

**Q.** And the % of control [26]?
**A.** 15%

**Q.** Which % of control [27] does the source give for `CN(C)C(=O)c1cc2cnc(Nc3ccc(N4CCNCC4)cn3)nc2n1C1CCCC1` here?
**A.** 5.8%
